Laboratory results reported in patent US10477864B2, “Microbiocidal quinoline (thio)carboxamide derivatives” (priority 2016, dated 2019).

Columns and labels:
[1] = tested on: Botryotinia fuckeliana (Botrytis cinerea); experiment: Botryotinia fuckeliana (Botrytis cinerea) / liquid culture (gray mould); assay type: cell-based; conditions: 72 h, read-out: control of Botryotinia fuckeliana
Fusarium culmorum [2] = experiment: microbe, parasite or virus in culture; assay type: cell-based; conditions: read-out: control of Fusarium culmorum
[3] = tested on: Glomerella lagenarium (Colletotrichum lagenarium); experiment: Glomerella lagenarium (Colletotrichum lagenarium) / liquid culture (anthracnose); assay type: cell-based; conditions: Colletotrichum orbiculare; read-out: control of Glomerella lagenarium
Fusarium culmorum [4] = experiment: whole plant or invertebrate; assay type: in vivo; conditions: in Triticum aestivum, read-out: control of Fusarium culmorum

CC(CCO)(Cc1ccccc1)NC(=O)c1cnc2c(F)cccc2c1 (stereo not drawn) [Compound E-119, N-(1-benzyl-3-hydroxy-1-methyl-propyl)-8-fluoro-quinoline-3-carboxamide]
≥ 80%: inhibition of growth at 200 ppm [1] | inhibition of growth at 200 ppm (Fusarium culmorum [2])

CC(Cc1ccccc1)(CC(F)(F)F)NC(=O)c1cnc2ccc(Cl)cc2c1 (stereo not drawn) [Compound E-78, N-(1-benzyl-3,3,3-trifluoro-1-methyl-propyl)-6-chloro-quinoline-3-carboxamide]
≥ 80%: inhibition of growth at 200 ppm (Fusarium culmorum [2])

CC(C)C[C@@](C)(Cc1ccccc1)NC(=O)c1cnc2cc(F)ccc2c1 [Compound F-14, N-[(1S)-1-benzyl-1,3-dimethyl-butyl]-7-fluoro-quinoline-3-carboxamide]
≥ 80%: inhibition of growth at 200 ppm [3] | pest or weed control at 200 ppm (Fusarium culmorum [4]) | inhibition of growth at 200 ppm [1] | inhibition of growth at 200 ppm (Fusarium culmorum [2])

CC(C)CC(C)(Cc1ccccc1)NC(=O)c1cc2cccc(F)c2nc1F (stereo not drawn) [Compound E-125, N-(1-benzyl-1,3-dimethyl-butyl)-2,8-difluoro-quinoline-3-carboxamide]
≥ 80%: inhibition of growth at 200 ppm [3] | pest or weed control at 200 ppm (Fusarium culmorum [4]) | inhibition of growth at 200 ppm [1] | inhibition of growth at 200 ppm (Fusarium culmorum [2])

Cc1nc2c(F)cccc2cc1C(=O)N[C@@](C)(Cc1ccccc1)CC(F)(F)F [Compound F-33, N-[(1S)-1-benzyl-3,3,3-trifluoro-1-methyl-propyl]-8-fluoro-2-methyl-quinoline-3-carboxamide]
≥ 80%: inhibition of growth at 200 ppm [3] | pest or weed control at 200 ppm (Fusarium culmorum [4]) | inhibition of growth at 200 ppm [1] | inhibition of growth at 200 ppm (Fusarium culmorum [2])

CC(C)CC(C)(Cc1ccccc1)NC(=O)c1cnc2cccc(F)c2c1 (stereo not drawn) [Compound E-74, N-(1-benzyl-1,3-dimethyl-butyl)-5-fluoro-quinoline-3-carboxamide]
≥ 80%: pest or weed control at 200 ppm (Fusarium culmorum [4]) | inhibition of growth at 200 ppm [1] | inhibition of growth at 200 ppm (Fusarium culmorum [2])

CC(C)C[C@](C)(Cc1ccccc1)NC(=O)c1cnc2c(F)c(F)ccc2c1 [Compound F-21, N-[(1R)-1-benzyl-1,3-dimethyl-butyl]-7,8-difluoro-quinoline-3-carboxamide]
≥ 80%: inhibition of growth at 200 ppm [3] | pest or weed control at 200 ppm (Fusarium culmorum [4]) | inhibition of growth at 200 ppm [1] | inhibition of growth at 200 ppm (Fusarium culmorum [2])

CC(C)C[C@](C)(Cc1ccccc1)NC(=O)c1cnc2cc(F)ccc2c1 [Compound F-13, N-[(1R)-1-benzyl-1,3-dimethyl-butyl]-7-fluoro-quinoline-3-carboxamide]
≥ 80%: inhibition of growth at 200 ppm [3] | pest or weed control at 200 ppm (Fusarium culmorum [4]) | inhibition of growth at 200 ppm [1] | inhibition of growth at 200 ppm (Fusarium culmorum [2])

COc1cccc2ncc(C(=O)NC(C)(Cc3ccccc3)CC(F)(F)F)cc12 (stereo not drawn) [Compound E-81, N-(1-benzyl-3,3,3-trifluoro-1-methyl-propyl)-5-methoxy-quinoline-3-carboxamide]
≥ 80%: pest or weed control at 200 ppm (Fusarium culmorum [4]) | inhibition of growth at 200 ppm [1] | inhibition of growth at 200 ppm (Fusarium culmorum [2])

CC(C)CC(C)(Cc1ccccc1)NC(=O)c1cnc2ccc(F)cc2c1 (stereo not drawn) [Compound E-73, N-(1-benzyl-1,3-dimethyl-butyl)-6-fluoro-quinoline-3-carboxamide]
≥ 80%: inhibition of growth at 200 ppm [1] | inhibition of growth at 200 ppm (Fusarium culmorum [2])

Cc1ccc2cc(C(=O)NC(C)(Cc3ccccc3)CC(C)C)cnc2c1 (stereo not drawn) [Compound E-72, N-(1-benzyl-1,3-dimethyl-butyl)-7-methyl-quinoline-3-carboxamide]
≥ 80%: pest or weed control at 200 ppm (Fusarium culmorum [4]) | inhibition of growth at 200 ppm [1] | inhibition of growth at 200 ppm (Fusarium culmorum [2])

Cc1ccc2ncc(C(=O)NC(C)(Cc3ccccc3)CC(C)C)cc2c1 (stereo not drawn) [Compound E-71, N-(1-benzyl-1,3-dimethyl-butyl)-6-methyl-quinoline-3-carboxamide]
≥ 80%: pest or weed control at 200 ppm (Fusarium culmorum [4]) | inhibition of growth at 200 ppm [1] | inhibition of growth at 200 ppm (Fusarium culmorum [2])

CC(C)CC(C)(Cc1ccccc1)NC(=O)c1cc2ccccc2[n+]([O-])c1 (stereo not drawn) [Compound E-41, N-(1-benzyl-1,3-dimethyl-butyl)-1-oxido-quinolin-1-ium-3-carboxamide]
≥ 80%: inhibition of growth at 200 ppm [1] | inhibition of growth at 200 ppm (Fusarium culmorum [2])

C=C(C)C[C@@](C)(Cc1ccccc1)NC(=O)c1cnc2c(F)c(F)ccc2c1 [Compound F-19, N-[(1S)-1-benzyl-1,3-dimethyl-but-3-enyl]-7,8-difluoro-quinoline-3-carboxamide]
≥ 80%: inhibition of growth at 200 ppm [3] | pest or weed control at 200 ppm (Fusarium culmorum [4]) | inhibition of growth at 200 ppm [1] | inhibition of growth at 200 ppm (Fusarium culmorum [2])

C[C@](Cc1ccccc1)(CC(F)(F)F)NC(=O)c1cnc2c(Cl)cccc2c1 [Compound F-35, N-[(1S)-1-benzyl-3,3,3-trifluoro-1-methyl-propyl]-8-chloro-quinoline-3-carboxamide]
≥ 80%: inhibition of growth at 200 ppm [3] | pest or weed control at 200 ppm (Fusarium culmorum [4]) | inhibition of growth at 200 ppm [1] | inhibition of growth at 200 ppm (Fusarium culmorum [2])

C[C@](Cc1ccccc1)(CC(F)(F)F)NC(=O)c1cnc2c(F)cccc2c1 [Compound F-11, N-[(1S)-1-benzyl-3,3,3-trifluoro-1-methyl-propyl]-8-fluoro-quinoline-3-carboxamide]
≥ 80%: inhibition of growth at 200 ppm [3] | pest or weed control at 200 ppm (Fusarium culmorum [4]) | inhibition of growth at 200 ppm [1] | inhibition of growth at 200 ppm (Fusarium culmorum [2])

Cc1nc2c(F)cccc2cc1C(=O)N[C@](C)(Cc1ccccc1)CC(F)(F)F [Compound F-34, N-[(1R)-1-benzyl-3,3,3-trifluoro-1-methyl-propyl]-8-fluoro-2-methyl-quinoline-3-carboxamide]
≥ 80%: inhibition of growth at 200 ppm [3] | inhibition of growth at 200 ppm [1] | inhibition of growth at 200 ppm (Fusarium culmorum [2])

COc1cccc2ncc(C(=O)NC(C)(Cc3ccccc3)CC(C)C)cc12 (stereo not drawn) [Compound E-75, N-(1-benzyl-1,3-dimethyl-butyl)-5-methoxy-quinoline-3-carboxamide]
≥ 80%: pest or weed control at 200 ppm (Fusarium culmorum [4]) | inhibition of growth at 200 ppm [1] | inhibition of growth at 200 ppm (Fusarium culmorum [2])

CC(C)(Cc1ccccc1)NC(=O)c1cnc2c(F)cccc2c1 [Compound E-11, N-(1,1-dimethyl-2-phenyl-ethyl)-8-fluoro-quinoline-3-carboxamide]
≥ 80%: pest or weed control at 200 ppm (Fusarium culmorum [4]) | inhibition of growth at 200 ppm [1] | inhibition of growth at 200 ppm (Fusarium culmorum [2])

CC(C)C[C@@](C)(Cc1ccccc1)NC(=O)c1cnc2c(F)c(F)ccc2c1 [Compound F-22, N-[(1S)-1-benzyl-1,3-dimethyl-butyl]-7,8-difluoro-quinoline-3-carboxamide]
≥ 80%: inhibition of growth at 200 ppm [3] | inhibition of growth at 200 ppm [1] | inhibition of growth at 200 ppm (Fusarium culmorum [2])

Cc1ccc2ncc(C(=O)NC(C)(Cc3ccccc3)CC(F)(F)F)cc2c1 (stereo not drawn) [Compound E-77, N-(1-benzyl-3,3,3-trifluoro-1-methyl-propyl)-6-methyl-quinoline-3-carboxamide]
≥ 80%: pest or weed control at 200 ppm (Fusarium culmorum [4]) | inhibition of growth at 200 ppm [1] | inhibition of growth at 200 ppm (Fusarium culmorum [2])

CC(Cc1ccccc1)(CC(F)(F)F)NC(=O)c1cnc2cccc(F)c2c1 (stereo not drawn) [Compound E-80, N-(1-benzyl-3,3,3-trifluoro-1-methyl-propyl)-5-fluoro-quinoline-3-carboxamide]
≥ 80%: pest or weed control at 200 ppm (Fusarium culmorum [4]) | inhibition of growth at 200 ppm [1] | inhibition of growth at 200 ppm (Fusarium culmorum [2])

Cc1c(C(=O)NC(C)(Cc2ccccc2)CC(C)C)cnc2c(C#N)cccc12 (stereo not drawn) [Compound E-109, N-(1-benzyl-1,3-dimethyl-butyl)-8-cyano-4-methyl-quinoline-3-carboxamide]
≥ 80%: pest or weed control at 200 ppm (Fusarium culmorum [4]) | inhibition of growth at 200 ppm [1] | inhibition of growth at 200 ppm (Fusarium culmorum [2])

CC(Cc1ccccc1)(CC(F)(F)F)NC(=O)c1cnc2ccc(F)cc2c1 (stereo not drawn) [Compound E-84, N-(1-benzyl-3,3,3-trifluoro-1-methyl-propyl)-6-fluoro-quinoline-3-carboxamide]
≥ 80%: pest or weed control at 200 ppm (Fusarium culmorum [4]) | inhibition of growth at 200 ppm [1] | inhibition of growth at 200 ppm (Fusarium culmorum [2])

CC(C)CC(C)(Cc1ccccc1)NC(=O)c1cnc2ccc(O)cc2c1 (stereo not drawn) [Compound E-76, N-(1-benzyl-1,3-dimethyl-butyl)-6-hydroxy-quinoline-3-carboxamide]
≥ 80%: pest or weed control at 200 ppm (Fusarium culmorum [4]) | inhibition of growth at 200 ppm [1] | inhibition of growth at 200 ppm (Fusarium culmorum [2])

CC(Cc1ccccc1)(CC(F)(F)F)NC(=O)c1cnc2ccc(O)cc2c1 (stereo not drawn) [Compound E-82, N-(1-benzyl-3,3,3-trifluoro-1-methyl-propyl)-6-hydroxy-quinoline-3-carboxamide]
≥ 80%: pest or weed control at 200 ppm (Fusarium culmorum [4]) | inhibition of growth at 200 ppm [1] | inhibition of growth at 200 ppm (Fusarium culmorum [2])

C=C(C)CC(C)(Cc1ccccc1)NC(=O)c1cc2cccc(F)c2nc1C (stereo not drawn) [Compound E-124, N-(1-benzyl-1,3-dimethyl-but-3-enyl)-8-fluoro-2-methyl-quinoline-3-carboxamide]
≥ 80%: inhibition of growth at 200 ppm [1] | inhibition of growth at 200 ppm (Fusarium culmorum [2])

CC(C=O)(Cc1ccccc1)NC(=O)c1cnc2c(F)cccc2c1 (stereo not drawn) [Compound E-120, N-(1-benzyl-1-methyl-2-oxo-ethyl)-8-fluoro-quinoline-3-carboxamide]
≥ 80%: inhibition of growth at 200 ppm (Fusarium culmorum [2])
